Key:
rats [1] = experiment: bladder outlet obstruction-induced bladder dysfunction in rats, 1-week treatment; type: in vivo, rat; settings: for effect on bladder hypertrophy secondary to outlet obstruction / effect on cystometric parameters: 1-week treatment; for effect on cystometric parameters: bladder outlet obstruction rats
Procedure: In another experiment, the effect of a 1-week treatment with 4-[3-[4-(6-fluoro-1,2,-benzisoxazol-3-yl)-1-piperidinyl]propoxy]-3-methoxy-benzoic acid, tamulosin, and a common vehicle on bladder outlet obstruction-induced bladder dysfunction in rats was evaluated. […] However, this latter effect was exclusively observed at the lowest dose tested (1 mg/kg/day).

rat alpha1A-adrenoceptor = biological target: T1, rat alpha1A-adrenoceptor (Rattus norvegicus, UniProt P43140); experiment: binding studies, rat alpha1A-adrenoceptor; settings: data communicated by Dr. Baroldi, Vanda Pharmaceuticals
T1 sequence (P43140 1-466): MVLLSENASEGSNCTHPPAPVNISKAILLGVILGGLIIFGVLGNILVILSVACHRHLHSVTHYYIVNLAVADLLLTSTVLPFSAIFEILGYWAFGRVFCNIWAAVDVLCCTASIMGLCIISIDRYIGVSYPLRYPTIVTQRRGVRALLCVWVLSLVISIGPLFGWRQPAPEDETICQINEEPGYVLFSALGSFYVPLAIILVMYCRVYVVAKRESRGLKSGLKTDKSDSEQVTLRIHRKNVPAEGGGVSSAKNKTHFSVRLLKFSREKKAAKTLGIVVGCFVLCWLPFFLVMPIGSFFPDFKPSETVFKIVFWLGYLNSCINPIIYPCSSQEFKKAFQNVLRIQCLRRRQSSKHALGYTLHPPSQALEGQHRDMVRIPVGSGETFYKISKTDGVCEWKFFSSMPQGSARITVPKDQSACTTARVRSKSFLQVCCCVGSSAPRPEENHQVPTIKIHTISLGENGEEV
Text: (§1) The pA2 of 4-[3-[4-(6-fluoro-1,2,-benzisoxazol-3-yl)-1-piperidinyl]propoxy]-3-methoxy-benzoic acid (7.50) is in accordance with the value previously found on the rabbit isolated prostate. […] Importantly, it is recognized that blockade of both alpha1A-and alpha1D-adrenoceptors is necessary for optimal clinical effect on BPH patients (Andersson K E, World J. Urol. 19: 390-96, 2002).

[2] = DMPK studies in rats with [14C]-labelled compound, brain radioactivity; type: in vivo, rat; settings: rats treated with [14C] compound
Text: 4-[3-[4-(6-fluoro-1,2,-benzisoxazol-3-yl)-1-piperidinyl]propoxy]-3-methoxy-benzoic acid appears not to cross the blood-brain barrier. Specifically, in DMPK studies using rats treated with [14C] […] Therefore, 4-[3-[4-(6-fluoro-1,2,-benzisoxazol-3-yl)-1-piperidinyl]propoxy]-3-methoxy-benzoic acid is particularly useful in conditions that are not mediated, to a substantial degree, by receptors in the brain.

anesthetized rats [3] = experiment: PE-induced increase in intra-urethral pressure (UP) in anesthetized rats, intravenous administration; type: in vivo, rat; settings: for effect on agonist (PE) effect on UP: PE dose range 10-300 ug/kg
Procedure: Briefly, catheters were inserted into the femoral vein of anesthetized male rats for drug administration and into the urethra through the bladder wall for measuring urethral pressure (UP). […] The different doses of PE (between 3 and 300 ug/kg in controls and up to 3000 ug/kg in treated animals) were administered intravenously under a volume of 1 mL/kg as a bolus with a 3 minute interval between each dose.

[4] = system: human alpha1-adrenoceptors expressed in the prostatic adenoma; experiment: norepinephrine (NE)-induced contraction in prostatic adenoma from BPH patients (isolated strips, organ bath); settings: for effect on pEC50 of the second CRC to NE: 60 min incubation
Procedure: Briefly, human prostatic adenoma was obtained from 6 patients (mean age 71±5 years) undergoing transvesical adenomectomy of the prostate because of BPH. Prostatic strips were mounted in glass organ baths containing a modified Krebs-Henseleit solution (NaCl 114 mM, KCl 4.7 mM, CaCl2 2.5 mM, KH2PO4 1.2 mM, NaHCO3 25 mM, glucose 11.7 mM, ascorbic acid 1.1 mM (pH 7.4, gassed with 95% O2 and 5% CO2 at 37° C.) under 1.5 g tension. […] Strips having a contractile response <0.3 g were discarded. After washout and 60 min of re-equilibration to re-establish baseline tension, a first cumulative concentration-response curve to NE (in the range 0.1 μM-1 mM) was constructed until a plateau of contraction was reached. […] Only one concentration of antagonist was tested in a single strip. […] The quantity of DMSO in the organ baths was equal to 0.1%.

serotonin 5HT2A receptor = serotonin 5HT2A receptor (Homo sapiens, UniProt P28223); experiment: receptor affinity/potency profile, serotonin 5HT2A receptor; type: binding
Sequence of serotonin 5HT2A receptor (P28223 whole entry): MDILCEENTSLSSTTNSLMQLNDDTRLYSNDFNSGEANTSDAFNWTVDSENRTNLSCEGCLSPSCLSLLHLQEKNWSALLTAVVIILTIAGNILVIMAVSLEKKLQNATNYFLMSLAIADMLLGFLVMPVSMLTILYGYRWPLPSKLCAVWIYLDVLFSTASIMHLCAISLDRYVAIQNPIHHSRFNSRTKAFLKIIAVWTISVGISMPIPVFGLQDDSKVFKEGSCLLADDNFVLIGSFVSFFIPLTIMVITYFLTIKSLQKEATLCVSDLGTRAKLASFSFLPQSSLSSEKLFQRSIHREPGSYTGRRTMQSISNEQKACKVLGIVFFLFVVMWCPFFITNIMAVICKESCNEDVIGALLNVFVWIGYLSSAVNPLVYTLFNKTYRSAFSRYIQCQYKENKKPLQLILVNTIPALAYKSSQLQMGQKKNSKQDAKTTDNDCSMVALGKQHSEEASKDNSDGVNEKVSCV

[5] = biological target: T2, cloned human alpha1 D-adrenoceptor (Homo sapiens, UniProt P25100); experiment: binding studies, cloned human alpha1D-adrenoceptor; settings: data communicated by Dr. Baroldi, Vanda Pharmaceuticals
T2 construct: expressed in transfected cells
T2 sequence (P25100 1-572): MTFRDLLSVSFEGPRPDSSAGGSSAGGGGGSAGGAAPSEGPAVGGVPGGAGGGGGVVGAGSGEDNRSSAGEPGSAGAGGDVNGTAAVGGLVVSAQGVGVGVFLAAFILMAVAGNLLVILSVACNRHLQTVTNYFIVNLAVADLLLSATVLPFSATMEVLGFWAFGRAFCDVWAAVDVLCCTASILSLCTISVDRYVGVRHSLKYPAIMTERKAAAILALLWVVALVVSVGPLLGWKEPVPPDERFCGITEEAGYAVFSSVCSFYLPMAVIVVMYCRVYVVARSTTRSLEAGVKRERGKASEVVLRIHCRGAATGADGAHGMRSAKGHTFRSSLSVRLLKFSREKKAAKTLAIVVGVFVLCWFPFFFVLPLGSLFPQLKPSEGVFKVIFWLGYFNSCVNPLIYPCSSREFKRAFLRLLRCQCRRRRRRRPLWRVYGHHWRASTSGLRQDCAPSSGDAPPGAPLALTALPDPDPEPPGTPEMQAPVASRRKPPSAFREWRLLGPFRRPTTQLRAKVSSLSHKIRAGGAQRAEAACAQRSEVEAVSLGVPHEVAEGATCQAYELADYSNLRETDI
Text: as §1

[6] = system: dopamine, histamine and serotonin receptors (other than 5HT2A); experiment: receptor affinity/potency profile, dopamine, histamine and serotonin receptors; type: binding
anesthetized rats [7] = experiment: PE-induced increase in intraurethral pressure (UP) and arterial blood pressure (BP) in anesthetized rats, oral administration; type: in vivo, rat; settings: for UP100% value (dose of PE increasing baseline UP by 100%), statistical significance / effect on BP, from BP10% to BP100%: 45 min; for effect on basal BP levels / effect on basal UP: oral; for effect on basal BP levels: 25 and 45 minutes after administration; for effect on basal UP: measured 25 or 45 minutes later
Procedure: An experiment was conducted to evaluate the antagonistic effect of 4-[3-[4-(6-fluoro-1,2,-benzisoxazol-3-yl)-1-piperidinyl]propoxy]-3-methoxy-benzoic acid on the PE-induced increase in intraurethral pressure (UP) and arterial blood pressure (BP) in anesthetized rats.

alpha1-adrenoceptors [8] = system: T3, alpha1-adrenoceptors; experiment: phenylephrine (PE)-induced contraction in the prostatic smooth muscle of male rabbits (isolated strips, organ bath); set-up: species or system rabbit; settings: rabbit isolated prostate, vs PE
T3 construct: antagonist potency (pA2) estimated by the Schild plot; other: rabbit isolated prostate, vs PE, 0.1-3 uM, 60 min incubat; other: rabbit isolated prostate, vs PE, single concentration 0.01 μ; pKb; other: rabbit isolated prostate
Procedure: (§2) It is well established in the literature that the rabbit is a good model for the pharmacology of the lower urinary tract. In particular, a correlation was found between affinities for cloned alpha1a-adrenoceptors and antagonist potency (pKb) values for several alpha1-adrenoceptors antagonists in the rabbit isolated prostate (Martin et al., J. Pharmacol. Expr. Ther. 282: 228-35, 1997). Briefly, following animal sacrifice, transverse preparations of the prostate were suspended vertically in 25 mL glass organ baths under a loading tension of 1 g and placed in an oxygenated, modified Krebs solution (NaCl 114 mM, KCl 4.7 mM, CaCl2 2.5 mM, KH2PO4 1.2 mM, NaHCO3 25 mM, glucose 11.7 mM (pH 7.4, gassed with 95% O2 and 5% CO2 at 37° C.). Propranolol (1 μM), desipramine (0.1 μM), deoxycorticosterone (3 μM) and normetanephrine (1 μM) were added to the Krebs-Henseleit solution in order to block beta-adrenoceptors, neuronal and extraneuronal uptake and catechol-O-methyl transferase, respectively. After 60 min of equilibration, smooth muscle strips were exposed to 30 μM PE to measure their viability. Strips having low contractile responses (<0.5 g) were discarded. Following a 30 min washout period, a first concentration-response curve (CRC) to PE (in the range 0.1 μM-1 mM) was obtained by cumulative additions as half-log unit concentrations increments. Then, tissues were washed for 60 min and incubated for 60 min with the test substance (at four different concentrations) before a second PE CRC was obtained (in the range 0.1 μM-10 mM). Only one concentration for the test substance was tested on each single smooth muscle strip.

alpha1-adrenoceptors [9] = experiment: as above; set-up: species or system rabbit
Procedure: as §2

alpha 1 adrenoceptors = experiment: receptor affinity/potency profile, alpha 1 adrenoceptors; type: binding
alpha1-adrenoceptors [10] = system: T3, alpha1-adrenoceptors; settings: rabbit isolated prostate; cited from earlier work
conscious rats = settings: i.v.; cited from earlier work
[11] = system: human isolated prostatic adenoma; settings: human isolated prostatic adenoma obtained from BPH patients; cited from earlier work
rats [12] = settings: administered intraduodenally; cited from earlier work

Compound: COc1cc(C(=O)O)ccc1OCCCN1CCC(c2noc3cc(F)ccc23)CC1 [4-[3-[4-(6-fluoro-1,2,-benzisoxazol-3-yl)-1-piperidinyl]propoxy]-3-methoxy-benzoic acid]
- effect on bladder hypertrophy secondary to outlet obstruction (rats [1]): devoid of effect
- effect on cystometric parameters (rats [1]): devoid of significant effect
- effect on amplitude of unstable contractions (rats [1]; exclusively at the lowest dose tested (1 mg/kg/day)): significantly decreased
- IC50 (rat alpha1A-adrenoceptor): 11.5 nM
- radioactivity concentrations in the brain (blood-brain barrier crossing) [2]: none of the animals had measurable radioactivity concentrations in the brain
- effect on delta UP (over baseline) induced by PE (anesthetized rats [3]; 10 ug/kg i.v., PE 100 ug/kg): statistically significant inhibitory effect
- effect on delta UP (over baseline) induced by PE (anesthetized rats [3]; 33.3 ug/kg i.v., PE 30-100 and 150 ug/kg): statistically significant inhibitory effect
- dose response curve to PE (urethral pressure) (anesthetized rats [3]; 10, 33.3 and 100 ug/kg i.v.): dose-dependently shifted to the right
- potency relative to tamsulosin (times less potent) (anesthetized rats [3]; intravenous route, anesthetized rats): approximately 10 times
- effect on agonist (PE) effect on UP (anesthetized rats [3]; test substance 100 ug/kg i.v.): statistically significant decrease
- effect on Emax of NE concentration-response curve [4]: no effect
- effect on pEC50 of the second CRC to NE [4]: concentration-dependent shift
- potency relative to tamsulosin (times less potent) ([4]; human alpha1-adrenoceptors in prostatic adenoma): approximately 100 times
- pA2 estimated by the Schild Plot ([4]; human prostatic adenoma, vs NE, dose-ratios corrected by solvent group): 7.50
- affinity and potency among receptors (serotonin 5HT2A receptor): greatest affinity and is most potent
- IC50 [5]: 17.8 nM
- activity with respect to the dopamine, histamine and serotonin receptors (other than 5HT2A) [6]: very weak if any activity
- effect on PE-induced increase of basal UP (anesthetized rats [7]; 0.5 mg/kg p.o.): ineffective
- effect on PE-induced increase of basal UP (anesthetized rats [7]; 1.5 mg/kg p.o.): slight effect
- UP100% value (dose of PE increasing baseline UP by 100%), statistical significance (anesthetized rats [7]; 1.5 mg/kg p.o.): reached the level of statistical significance
- effect on BP, from BP10% to BP100% (anesthetized rats [7]; 1.5 mg/kg p.o.): significant
- effect on PE-induced increase of basal UP (anesthetized rats [7]; 4.5 mg/kg p.o.): slight effect
- UP100% value (dose of PE increasing baseline UP by 100%), statistical significance (anesthetized rats [7]; 4.5 mg/kg p.o.): not
- effect on BP, from BP10% to BP100% (anesthetized rats [7]; 4.5 mg/kg p.o.): no effect
- potency relative to tamsulosin (times less potent) on both UP and BP (anesthetized rats [7]; oral route, 1.5 mg/kg at 45 min equipotent with 0.3 mg/kg tamsulosin): about 5 times
- effect on basal BP levels (anesthetized rats [7]): significantly decreased
- effect on basal UP (anesthetized rats [7]): no effect
- antagonist potency (pA2) estimated by the Schild plot (alpha1-adrenoceptors [8]; 0.1-3 uM, 60 min incubation): 7.47
- effect on Emax of PE concentration-response curve (alpha1-adrenoceptors [9]): unaffected
- effect on PE-induced contractions (alpha1-adrenoceptors [9]; n=6 for each dose, 0.1-3 uM): concentration-dependently antagonized
- affinity/potency for alpha 1 adrenoceptors compared with alpha 2 adrenoreceptors (alpha 1 adrenoceptors): slightly greater affinity/potency
- affinity and potency among receptors (alpha 1 adrenoceptors; alpha 1 adrenoceptors): greatest affinity and is most potent

Compound: COc1cc2nc(N(C)CCCNC(=O)C3CCCO3)nc(N)c2cc1OC (centres unmarked) [alfuzosin]
- pKb (alpha1-adrenoceptors [10]): 7.25
- potency relative to tamsulosin (fold less potent) in decreasing basal urethral pressure (conscious rats): 10 fold
- pKb [11]: 7.78

Compound: C[C@H](Cc1cc2c(c(C(N)=O)c1)N(CCCO)CC2)NCCOc1ccccc1OCC(F)(F)F [silodosin]
- potency relative to tamsulosin (times less potent) on UP (rats [12]): 2.8 times

Compound: CCOc1ccccc1OCCN[C@H](C)Cc1ccc(OC)c(S(N)(=O)=O)c1 [tamsulosin, reference compound]
- effect on bladder hypertrophy secondary to outlet obstruction (rats [1]): devoid of effect
- effect on cystometric parameters (rats [1]): completely ineffective
- effect on agonist (PE) effect on UP (anesthetized rats [3]; tamsulosin 10 ug/kg): statistically significant decrease
- pKb (alpha1-adrenoceptors [10]): 9.74
- effect on Emax of NE concentration-response curve [4]: no effect
- effect on pEC50 of the second CRC to NE [4]: induced a shift
- effect on basal BP levels (anesthetized rats [7]): significantly decreased
- effect on basal UP (anesthetized rats [7]): no effect
- pA2 calculated from the dose-ratio of pEC50 values (alpha1-adrenoceptors [8]; single concentration 0.01 μM): 10.21
- effect on Emax of PE concentration-response curve (alpha1-adrenoceptors [9]): unaffected
- potency of tamsulosin relative to the test substance (times more potent) (alpha1-adrenoceptors [9]; rabbit preparation, based on similar PE pEC50 values): 300 times

From patent US10272075B2, “Method and composition for treating an alpha adrenoceptor-mediated condition” (Vanda Pharmaceuticals, Inc., priority 2007, dated 2019)
